Two molecules from patent publication US20060046992A1, “HETEROBICYCLIC COMPOUNDS” (priority 2002, published 2006) can be followed below.

Experiment [1] relates to MIN6 cell. Briefly: Insulin secretion promoting activity for cultured β-cells, in the presence of 14.5 mmol/L glucose. The format is cell-based. The following applies: none: 148.4. Here is the method:
(§1) Further, the insulin secretion of the MIN6 cell is prompted in response to sulfonylurea-agents such as glibenclamide, which are used as a medicament for treatment of diabetes (Cellular Signalling, vol. 5, p. 777-786, 1993).
Culture of the MIN6 cells above and insulin secretion test utilizing the MIN6 cells were performed according to the methods described in Diabetologia, vol. 36, p. 1139-1145, 1993. The effect of a compound on the insulin secretion in the presence of 14.5 mmol/L glucose was determined by measuring insulin amounts in cell culture supernatants collected as follows. MIN6 cells cultured on a 24-well plate were washed twice by using 1 mL of Buffer A (119 mmol/L sodium chloride, 4.74 mmol/L potassium chloride, 2.54 mmol/L calcium chloride, 1.19 mmol/L magnesium sulfate, 1.19 mmol/L potassium dihydrogenphosphate, 10 mmol/L 2-[4-(2-hydroxyethyl)-1-piperazinyl]ethanesulfonic acid, and 0.1% bovine serum albumin, pH 7.3) containing 2 mmol/L glucose, and then were incubated in 1 mL of Buffer A containing 2 mmol/L glucose at 37° C. for 45 minutes. After the incubation, the culture supernatant was changed to Buffer A (0.9 mL) containing a test compound at various concentrations and 2 mmol/L glucose, and the cells were further incubated at 37° C. for 15 minutes. […]

The subject of experiment [2] is MIN6 cell. Briefly: Insulin secretion promoting activity for cultured β-cells, in the presence of 5 mmol/L glucose. The format is cell-based. The following applies: for Insulin secretion amount (ng/mL) Avg: 5 mmol/L glucose, None: 51.2; for secretion promoting action at low glucose concentration (in words): glucose at a low concentration (5 mmol/L). Here is the method: as §1
Separately, the effect of a compound on the insulin secretion in the presence of 5 mmol/L glucose was determined by measuring insulin amounts in cell culture supernatants collected as follows. MIN6 cells cultured on a 24-well plate were washed twice by using 1 mL of Buffer A containing 5 mmol/L glucose, and then the culture supernatant was changed to Buffer A (0.9 mL) containing a test compound at various concentrations and 5 mmol/L glucose. Then, the cells were incubated at 37° C. for 45 minutes (final glucose concentration: 5 mmol/L), and the culture supernatant was collected.
After the culture supernatant was diluted with a phosphate buffer containing 1% bovine serum albumin, 0.1% Tween 20, 0.12% disodium ethylenediaminetetraacetate (EDTA), and 0.1% sodium azide, antibody-reactive insulin secreted in the culture supernatant was qualified by enzyme immunoassay or radio immunoassay. The insulin level was indicated as the amount of human insulin (ng/mL). The results are indicated as average (avg) of 3 to 4 samples with standard error values (se).

As for `CC(C)[C@H]1CC[C@H](C(=O)N[C@H](Cc2ccccc2)C(=O)O)CC1` [AY4166], in the experiment on MIN6 cell [1] (drug concentration 10 μmol/L), the “Insulin secretion amount (ng/mL) avg” value is reported as 195.1 ng/mL. In addition, in the experiment on MIN6 cell [2] (drug concentration 10 μmol/L), the “Insulin secretion amount (ng/mL) Avg” value amounted to 170.8 ng/mL. In the experiment on MIN6 cell [2], the “secretion promoting action at low glucose concentration (in words)” value is “showed marked secretion promoting action”.
With `COc1ccc(Cl)cc1C(=O)NCCc1ccc(S(=O)(=O)NC(=O)NC2CCCCC2)cc1` [Glibenclamide], in the experiment on MIN6 cell [1] (drug concentration 0.1 μmol/L), the “Insulin secretion amount (ng/mL) avg” value was determined as 177.8 ng/mL. Besides, the “Insulin secretion amount (ng/mL) Avg” value in the experiment on MIN6 cell [2] (drug concentration 0.1 μmol/L) was found to be 156.8 ng/mL. In the experiment on MIN6 cell [2], the “secretion promoting action at low glucose concentration (in words)” value is “showed marked secretion promoting action”.
